{"source": "paper PMC10250256", "about": "“A radiohybrid theranostics ligand labeled with fluorine-18 and lutetium-177 for fibroblast activation protein-targeted imaging and radionuclide therapy” (European Journal of Nuclear Medicine and Molecular Imaging, 2023)", "key": {"HT-1080-FAP cells": {"test_system": "HT-1080-FAP cells", "assay": "efflux experiments in HT-1080-FAP cells", "format": "cell-based, human", "conditions": "preincubated 1 h, up to 4 h", "description": "(§1) The human fibrosarcoma cell lines HT-1080 and HT-1080-FAP transferred with human FAP gene were both cultured in Dulbecco modified Eagle medium supplemented with 10% fetal bovine serum (Gibco, USA) at 37℃/5% carbon dioxide. For cell uptake experiments, HT-1080-FAP cells (~ 1 × 10^5/well) or HT-1080 (~ 1 × 10^5/well) were seeded in 24-well plates for 24–48 h and incubated at 37℃ with radiolabeled compounds (74 kBq/well) in 0.5 mL of serum-free medium for indicated times. Non-specific binding was determined by co-incubating with 100 μM FAP inhibitor UAMC1110. For competitive FAP binding assays, HT-1080-FAP cells were incubated with [^177Lu]Lu-FAPI-04 (74 kBq/well) in the presence of different concentrations (10^−3–10^4 nM) of competing non-radioactive ligands. For internalization experiments, the radiotracer-incubated cells were washed twice with PBS (pH 7.4), followed by glycine–HCl (0,05 M, pH = 2.8) solution to distinguish between cell surface–bound (acid-releasable) and internalized (acid-resistant) radioligand. For efflux experiments, cells were preincubated with [^177Lu]21 or [^177Lu]Lu-FAPI-04 for 1 h and subsequently incubated at 37 °C in a medium free of radiotracer and serum for different time periods. […] Cell lysates were collected and the radioactivity was determined using a γ-counter."}, "[1]": {"assay": "in vitro stability in PBS or murine serum (radio-HPLC)", "format": "in vitro ADME", "description": "(§2) [^18F]21 or [^177Lu]21 (50 μCi, 10 μL) was added to PBS (90 μL) or murine serum (90 μL) and the mixture was incubated at 37 °C for a certain time ([^18F]21: 2 h, [^177Lu]21: 8 d). The PBS mixture was injected directly into the radio-HPLC for analysis. The murine serum was precipitated with 0.1 mL of acetonitrile and centrifuged (10,000 rpm, 5 min). The supernatant was measured and analyzed by the radio-HPLC to determine the stability. For in vivo stability study, the radio tracers were injected into the tail vein of ICR mice and samples of blood were collected after a certain time post injection (pi) ([^18F]21: 4 h, [^177Lu]21: 9 h). The plasma proteins were precipitated using an equal volume of acetonitrile and centrifuged (10,000 rpm, 5 min). The RCP of radio tracer in supernatants were analyzed and quantified by radio-HPLC. The radio-HPLC method was as follows: A: 0.1% TFA in H2O, B: ACN, 0–10 min, 0–100% B. The flow rate was 1 mL/min, and the C18 column (4.6 × 150 mm, 5 μm, ZORBAX, Agilent) was used. When using HPLC to assess the stability of [^177Lu]21, the effluent was collected every 30 s due to its less radioactivity, and samples were measured by an automatic γ-counter (2480 Wizard2, Perkin Elmer). The counted samples were plotted as intensity (cpm) against fraction."}, "[2]": {"assay": "in vivo stability in ICR mice, blood samples (radio-HPLC)", "description": "as §2"}, "HT-1080 cells": {"test_system": "HT-1080 cells", "assay": "cell uptake in HT-1080 (FAP negative) cells", "format": "cell-based, human", "description": "as §1"}, "HT-1080-FAP xenografts": {"test_system": "HT-1080-FAP xenografts", "assay": "radionuclide treatment of HT-1080-FAP xenografts", "format": "in vivo, BALB/C-nu/nu mice", "description": "(§3) All animal experiments were conducted in compliance with a protocol approved by the First Affiliated Hospital of Sun Yat-sen University Institutional Animal Care and Use Committee. BALB/C-nu/nu mice (4–5-week old with body weight of 16–22 g) were purchased from GemPharmatech Co., Ltd. Mice were housed under standard conditions with temperature and light control (12-h-light/12-h-dark cycle) and had free access to water and food. For the tumor model, HT-1080-FAP or HT-1080 cells (5 × 10^6) were subcutaneously injected into the right or left flank of nude mice, respectively. As the tumor diameter reached 3–4 mm, mice were treated with radioligands. Micro-PET and SPECT imaging studies, as well as biodistribution, were conducted when the tumor diameter reached 5–10 mm.\nRadionuclide therapy was performed when the diameter of HT-1080-FAP xenografts reached 3–4 mm. The mice were randomly divided into 4 groups (n = 4) and intravenously injected with [^177Lu]21 (24.05 MBq), [^177Lu]21 (9.25 MBq), [^177Lu]Lu-FAPI-04 (24.05 MBq) and saline, respectively. Tumor volume (volume = length × width^2/2) and mouse weight were measured every 2–3 d. Endpoint criteria were defined as weight loss of more than 15%, tumor volume greater than 1500 mm^3, or active ulcerations of the tumor. […]"}, "HT-1080-FAP xenograft": {"test_system": "HT-1080-FAP xenograft", "assay": "SPECT imaging, HT-1080-FAP xenograft", "format": "in vivo, BALB/C-nu/nu mice", "conditions": "about 37 MBq i.v.", "description": "as §3\nThe mice bearing HT-1080-FAP or HT-1080 xenografts were injected with about 37 MBq of [^177Lu]21 via the tail vein, and SPECT (Siemens, Symbia Intevo Bold, Germany) was performed at 2 h to 8 d after injection. The SPECT parameters were as follows: medium-energy collimator, energy peaks of 113 and 208 keV, matrix of 256 × 256, and scan duration of 10 min."}}}
{"molecule": "CC(C)(C)[Si](F)(c1ccc(C(=O)NCC(NC(=O)CCC(C(=O)O)N2CCN(CC(=O)[O-])CCN(CC(=O)[O-])CCN(CC(=O)[O-])CC2)C(=O)NCC2CCC(C(=O)NCCCOc3ccc4nccc(C(=O)NCC(=O)N5CC(F)(F)CC5C#N)c4c3)CC2)cc1)C(C)(C)C.[177Lu+3]", "note": "(stereo not shown) [[^177Lu]21]", "values": [{"measurement": "efflux", "setting": "HT-1080-FAP cells", "value": "slower excretion up to 4 h than [^177Lu]Lu-FAPI-04"}, {"measurement": "RCP after incubating in saline and serum", "setting": "[1]; 8 days, 37 °C", "value": "> 90", "unit": "%"}, {"measurement": "in vitro stability", "setting": "[1]; as summarised in discussion", "value": "> 90", "unit": "%"}, {"measurement": "metabolization in blood samples (radio-HPLC)", "setting": "[2]; ICR mice, within 9 h pi", "value": "little evidence of any metabolization"}, {"measurement": "in vivo stability", "setting": "[2]; as summarised in discussion", "value": "> 90", "unit": "%"}, {"measurement": "cell uptake in FAP negative cells", "setting": "HT-1080 cells", "value": "Almost no uptakes"}, {"measurement": "suppression of tumor growth versus control", "setting": "HT-1080-FAP xenografts; 9.25 MBq i.v.", "value": "no statistically significant difference in comparison to control"}, {"measurement": "average relative tumor volume", "setting": "HT-1080-FAP xenografts; 24.05 MBq i.v., end of study", "value": 4.55}, {"measurement": "time pi up to which high accumulation was observed (SPECT)", "setting": "HT-1080-FAP xenograft", "value": "up to 144 h"}, {"measurement": "time up to which tumor uptake could be visualized (SPECT)", "setting": "HT-1080-FAP xenograft", "value": "up to 6 days"}]}
